{"source": "patent US20210114973A1", "about": "“PHARMACEUTICAL FORMULATIONS” (First Wave Bio, Inc., priority 2019, published 2021)", "key": {"[1]": {"conditions": "cited from earlier work"}, "[2]": {"experiment": "Effect of particle size on colonic exposure levels: single rectal dose of niclosamide suspension, blood and rectal mucosa samples", "conditions": "rabbit; for plasma concentration of niclosamide (maximum measured): rectal administration, 1 hour (time point of maximum plasma concentration)", "method": "These preparations of niclosamide were formulated into a suspension. Rabbits were treated with a single dose of these niclosamide suspensions at the dose levels specified. Following dosing, blood samples and rectal mucosa samples were obtained at indicated time points."}}}
{"smiles": "O=C(Nc1ccc([N+](=O)[O-])cc1Cl)c1cc(Cl)ccc1O", "note": "[Niclosamide, 5-chloro-N-(2-chloro-4-nitrophenyl)-2-hydroxybenzamide]", "values": [{"measurement": "solubility in acetone", "setting": "[1]; acetone", "result": "soluble"}, {"measurement": "solubility in ether, ethanol and chloroform", "setting": "[1]; ether, ethanol and chloroform", "result": "sparingly soluble"}, {"measurement": "water solubility", "setting": "[1]; water, 20° C.", "result": "5 to 8", "unit": "µg/mL"}]}
{"smiles": "O=C(Nc1ccc([N+](=O)[O-])cc1Cl)c1cc(Cl)ccc1O", "note": "[milled niclosamide, 5-chloro-N-(2-chloro-4-nitrophenyl)-2-hydroxybenzamide]", "values": [{"measurement": "concentration at 1 hour", "setting": "[2]; colon tissue, other: rectal, 22.5 mg", "result": 6090, "unit": "ng/mL"}, {"measurement": "plasma concentration of niclosamide (maximum measured)", "setting": "[2]; 7.5 mg single dose", "result": 6.576}, {"measurement": "plasma concentration of niclosamide (maximum measured)", "setting": "[2]; 22.5 mg single dose", "result": 20.24}]}
